We go through six compounds from patent US12540161B2, “Linkers” (BicycleTx Limited, priority 2020, dated 2026).

Data set [1] is described as follows: in vitro. Particulars: mouse, plasma.
The nature of data set [2]: in vitro. The settings on record: rat, plasma, Plasma protein binding (% Unbound) Rat.
Data set [3] concerns the target Cathepsin B (Homo sapiens, UniProt P07858). Nature of the data set: Cathepsin B (CatB) cleavage assay. The data set is classed as biochemical. The settings on record: for % Parent remaining after incubation with CatB, 0 h / % Parent remaining after incubation with CatB, 1 h / % Parent remaining after incubation with CatB, 2 h / % Parent remaining after incubation with CatB, 4 h / % Parent remaining after incubation with CatB, 6 h / % Parent remaining after incubation with CatB, 24 h / half-life at 40 μM: BTCs; for half-life at 40 μM: read-out: CatB t1/2 (converted); for % Parent remaining after incubation with CatB, T = 1 h / % Parent remaining after incubation with CatB, T = 4 h / % Parent remaining after incubation with CatB, T = 24 h: norfloxacin linker compounds. As for the experimental part: 15 μL of test compound solution (2 mM in DMSO) was added to the incubation plate in duplicate. 30 μL of Cathepsin B stock solution (16 μM) was pre-activated with 1500 μL activation buffer for 10 min at room temperature. The Cathepsin B solution was diluted in 13.17 mL water, then 735 μL activatived enzyme mixture was added to the incubation plate. The mixture was incubated at 37° C. in a waterbath. […] The samples were mixed and centrifuged at 4000 rpm for 20 min. 50 μL of supernatant was taken into a new plate containing 150 μL ultra-pure water and the samples mixed thoroughly before submitting to LC-MS/MS analysis.

Data set [4] is described as follows: Plasma stability analysis, mouse plasma. Particulars: for half-life at 2 μM: plasma; for fold increase in half-life vs Cit-Val: 2 μM. How it is done: Pooled frozen plasma was thawed in a water bath at 37° C. Plasma was centrifuged at 4000 rpm for 5 min and the clots were removed if any. The pH will be adjusted to 7.4±0.1 if required. 1 mM stock solution was prepared with DMSO. Propantheline (positive control) was prepared by making a 100 μM working solution by diluting 5 μL of the stock solution (10 mM) with 495 μL ultra pure water. 100 μM working solutions of test compounds were made up by diluting 10 μL of the stock solution (1 mM) with 90 μL DMSO. 98 μL of blank plasma was spiked with 2 μL of dosing solution (100 μM) to achieve 2 μM of the final concentration in duplicate and samples were incubated at 37° C. in a water bath. […] An aliquot of supernatant (150 μL) was transferred from each well before submitting for LC-MS/MS analysis.
The % remaining test compound after incubation in plasma was calculated using following equation: Remaining=100×(PAR at appointed incubation time/PAR at T0 time)
where PAR is the peak area ratio of analyte versus internal standard (IS).
The half-life (T½) was calculated from a log linear plot of concentration versus time.

The nature of data set [5]: in vivo. The settings on record: male, CD-1, mouse, plasma, intravenous.
Method: Male CD-1 mice were dosed with each Bicycle Conjugate formulated in 25 mM histidine HCl, 10% sucrose pH 7 via tail vein injection. Serial bleeding (about 80 μL blood/time point) was performed via submadibular or saphenous vein at each time point. All blood samples were immediately transferred into prechilled microcentrifuge tubes containing 2 μL K2-EDTA (0.5M) as anti-coagulant and placed on wet ice. Blood samples were immediately processed for plasma by centrifugation at approximately 4° C., 3000 g. The precipitant including internal standard (350 μL) was immediately added into the 35 μL plasma sample, mixed well and centrifuged at 3220 g, 4° C. for 15 minutes. The supernatant was transferred into pre-labeled polypropylene microcentrifuge tubes, and then quick-frozen over dry ice. The samples were stored at 70° C. or below as needed until analysis. Supernatant samples were mixed with 50 μL water, vortexed well and centrifuged at 3220 g, 4° C. for 15 minutes. A sample of the supernatant was injected for LC-MS/MS analysis using an Acquity UPLC with AB Sciex 6500+ Triple Quad MS in positive ion mode to determine the concentrations of Bicycle Conjugate and released payload. Plasma concentration versus time data were analyzed by non-compartmental approaches using the Phoenix WinNonlin 6.3 software program. C0, Cl, Vdss, T1/2, AUC(0-inf), MRT(0-last), MRT(0-inf) nd graphs of plasma concentration versus time profile were reported.
Data set [6] in a line: in vitro. The settings on record: rat, plasma, pH 7.4.
Method: Pooled frozen plasma was thawed in a water bath at 37° C. Plasma was centrifuged at 4000 rpm for 5 min and the clots were removed if any. The pH will be adjusted to 7.4±0.1 if required. 1 mM stock solution was prepared with DMSO. Propantheline (positive control) was prepared by making a 100 μM working solution by diluting 5 μL of the stock solution (10 mM) with 495 μL ultra pure water. 100 μM working solutions of test compounds were made up by diluting 10 μL of the stock solution (1 mM) with 90 μL DMSO. 98 μL of blank plasma was spiked with 2 μL of dosing solution (100 μM) to achieve 2 μM of the final concentration in duplicate and samples were incubated at 37° C. in a water bath. At each time point (0, 1, 2, 4, 6 and 24 hr), 400 μL of 200 ng/mL tolbutamide and labetalol in 100% MeOH was added and mixed thoroughly to precipitate proteins. Sample plates were centrifuged at 4,000 rpm for 15 min. An aliquot of supernatant (150 μL) was transferred from each well before submitting for LC-MS/MS analysis.
The appointed incubation time points are T0 (0 hr), Tn (n=0, 1, 2, 4, 6, 24 hr). The half-life (T½) was calculated from a log linear plot of concentration versus time.
When the % remaining value at the maximal incubation time, which was 24 hr in this study, was higher than 75%, it is considered to be within the acceptable experimental variation.
A short description of data set [7]: in vitro. The settings on record: human, plasma, pH 7.4.
Data set [8] is described as follows: in vitro. The settings on record: human, plasma.
[9] abbreviates: pH 7.4, Mouse plasma t1/2 (EDTA), BTCs, EDTA anticoagulant.
The mark [10] stands for this setting: pH 7.4, Mouse plasma t1/2 (Herparin), BTCs, heparin anticoagulant.

Consider `CC[C@H](C)[C@@H]([C@@H](CC(=O)N1CCC[C@H]1[C@H](OC)[C@@H](C)C(=O)N[C@H](C)[C@@H](O)c1ccccc1)OC)N(C)C(=O)[C@@H](NC(=O)[C@H](C(C)C)N(C)C(=O)OCc1ccc(NC(=O)[C@H](CCN)NC(=O)[C@H](Cc2ccc3ccccc3c2)NC(=O)[C@H](CCC(=O)O)NC(=O)Cn2cc(CCC(=O)NCCC(=O)N(C)CC(=O)N(C)CC(=O)N(C)CC(=O)N(C)CC(=O)N(C)CC(=O)N(C)CC(=O)N(C)CC(=O)N(C)CC(=O)N(C)CC(=O)N(C)CC(=O)N[C@@H](C)C(=O)N[C@H]3CN(C)Cc4cc5cc(c4)CN(C)C[C@@H](C(N)=O)NC(=O)[C@H](C(C)(C)C)NC(=O)[C@H](CC(=O)O)NC(=O)[C@H](Cc4ccc(O)cc4)NC(=O)[C@H](Cc4ccccc4)NC(=O)[C@H](CC(=O)O)NC(=O)[C@H](CCC(=O)O)NC(=O)[C@H](CSC5)NC(=O)[C@@H](C)NC(=O)[C@H](Cc4cccc5ccccc45)NC(=O)[C@H](CCC(=O)O)NC(=O)[C@H](CC(N)=O)NC(=O)[C@@H](C)NC3=O)nn2)cc1)C(C)C` [BCY10986, MMAE-PAB-(Dab-2Nal-Glu)-BCY3900], for which, in data set [1], the unbound share (fraction unbound) (as a rule, free concentration divided by total concentration) was determined as 0.071. In addition, in data set [2], the fraction unbound was determined as 0.115. Also, in data set [3], the “% Parent remaining after incubation with CatB, 0 h” value (from here on “% Parent remaining … 0 h”) was determined as 100%; the “% Parent remaining after incubation with CatB, 1 h” value (from here on “% Parent remaining … with CatB, 1 h”) is recorded as 9.7346%; the “% Parent remaining after incubation with CatB, 2 h” value (from here on “% Parent remaining … 2 h”) amounted to 0%; the “% Parent remaining after incubation with CatB, 4 h” value (from here on “% Parent remaining … with CatB, 4 h”) was 0%. Moreover, in data set [3], the “% Parent remaining after incubation with CatB, 6 h” value (from here on “% Parent remaining … 6 h”) is 0%; the “% Parent remaining after incubation with CatB, 24 h” value came out at 0%; the half-life at 40 μM is 0.3 h. The compound further had a half-life at 2 μM in data set [4] (setting [9]) of 50.1 h.

The compound `CC[C@H](C)[C@@H]([C@@H](CC(=O)N1CCC[C@H]1[C@H](OC)[C@@H](C)C(=O)N[C@H](C)[C@@H](O)c1ccccc1)OC)N(C)C(=O)[C@@H](NC(=O)[C@H](C(C)C)N(C)C(=O)OCc1ccc(NC(=O)[C@H](CCCNC(N)=O)NC(=O)[C@@H](NC(=O)[C@H](CCC(=O)O)NC(=O)Cn2cc(CCC(=O)NCCC(=O)N(C)CC(=O)N(C)CC(=O)N(C)CC(=O)N(C)CC(=O)N(C)CC(=O)N(C)CC(=O)N(C)CC(=O)N(C)CC(=O)N(C)CC(=O)N(C)CC(=O)N[C@@H](C)C(=O)N[C@H]3CN(C)Cc4cc5cc(c4)CN(C)C[C@@H](C(N)=O)NC(=O)[C@H](C(C)(C)C)NC(=O)[C@H](CC(=O)O)NC(=O)[C@H](Cc4ccc(O)cc4)NC(=O)[C@H](Cc4ccccc4)NC(=O)[C@H](CC(=O)O)NC(=O)[C@H](CCC(=O)O)NC(=O)[C@H](CSC5)NC(=O)[C@@H](C)NC(=O)[C@H](Cc4cccc5ccccc45)NC(=O)[C@H](CCC(=O)O)NC(=O)[C@H](CC(N)=O)NC(=O)[C@@H](C)NC3=O)nn2)C(C)C)cc1)C(C)C` [BCY10980, MMAE-PAB-(Cit-Val-Glu)-BCY3900] displayed a fraction unbound in data set [1] of 0.187. Moreover, in data set [5], the C0 is 40200 ng/mL; the Vd (usually the apparent volume that relates the amount in the body to the concentration in plasma or blood) came to 0.2 L/kg; the clearance (as a rule, a measure of how efficiently the substance is removed, as volume per time) is 4.8 mL/min/kg; the half-life is 0.64 h. For the same compound, in data set [3], the “% Parent remaining … 0 h” value came out at 100%; the “% Parent remaining … with CatB, 1 h” value was 0%; the “% Parent remaining … 2 h” value amounted to 0%; the “% Parent remaining … with CatB, 4 h” value is 0%. Also, in data set [3], the “% Parent remaining … 6 h” value turned out to be 0%; the “% Parent remaining after incubation with CatB, 24 h” value was found to be 0%; the half-life at 40 μM is under 0.2 h. This compound also came in with a half-life at 2 μM in data set [4] (setting [9]) of over 57.8 h. The same compound had a half-life at 2 μM in data set [4] (setting [10]) of over 57.8 h. This compound gave a half-life at 2 μM in data set [6] of over 57.8 h. This compound also showed a half-life at 2 μM in data set [7] of 40 h.

In data set [1], `CC[C@H](C)[C@@H]([C@@H](CC(=O)N1CCC[C@H]1[C@H](OC)[C@@H](C)C(=O)N[C@H](C)[C@@H](O)c1ccccc1)OC)N(C)C(=O)[C@@H](NC(=O)[C@H](C(C)C)N(C)C(=O)OCc1ccc(NC(=O)[C@H](CCN)NC(=O)[C@H](Cc2cccc3ccccc23)NC(=O)[C@H](CCC(=O)O)NC(=O)Cn2cc(CCC(=O)NCCC(=O)N(C)CC(=O)N(C)CC(=O)N(C)CC(=O)N(C)CC(=O)N(C)CC(=O)N(C)CC(=O)N(C)CC(=O)N(C)CC(=O)N(C)CC(=O)N(C)CC(=O)N[C@@H](C)C(=O)N[C@H]3CN(C)Cc4cc5cc(c4)CN(C)C[C@@H](C(N)=O)NC(=O)[C@H](C(C)(C)C)NC(=O)[C@H](CC(=O)O)NC(=O)[C@H](Cc4ccc(O)cc4)NC(=O)[C@H](Cc4ccccc4)NC(=O)[C@H](CC(=O)O)NC(=O)[C@H](CCC(=O)O)NC(=O)[C@H](CSC5)NC(=O)[C@@H](C)NC(=O)[C@H](Cc4cccc5ccccc45)NC(=O)[C@H](CCC(=O)O)NC(=O)[C@H](CC(N)=O)NC(=O)[C@@H](C)NC3=O)nn2)cc1)C(C)C` [BCY10985, MMAE-PAB-(Dab-1Nal-Glu)-BCY3900] returned a fraction unbound of 0.048. In data set [5], this compound gave a C0 of 26400 ng/mL, a Vd of 0.18 L/kg, a clearance of 1 mL/min/kg and a half-life of 2.48 h. In data set [3], the “% Parent remaining … 0 h” value was 100%; the “% Parent remaining … with CatB, 1 h” value was found to be 103.62%; the “% Parent remaining … 2 h” value amounted to 94.8%; the “% Parent remaining … with CatB, 4 h” value came to 107%. Further, in data set [3], the “% Parent remaining … 6 h” value turned out to be 92.2%; the “% Parent remaining after incubation with CatB, 24 h” value stood at 86.82%; the half-life at 40 μM was over 57.8 h. Further, the half-life at 2 μM in data set [4] (setting [9]) was over 57.8 h. In data set [4] (setting [10]), this compound gave a half-life at 2 μM of over 57.8 h. Moreover, the fraction unbound in data set [8] was 0.234. Moreover, the half-life at 2 μM in data set [6] is over 57.8 h. This compound came in with a half-life at 2 μM in data set [7] of over 57.8 h.

`CCn1cc(C(=O)O)c(=O)c2cc(F)c(N3CCN(C(=O)OCc4ccc(NC(=O)[C@H](CCNC(=N)NC)NC(=O)[C@@H](NC(=O)CCCC(=O)N(C)C)C(C)C)cc4)CC3)cc21` [BCY9477]: in data set [3], the “% Parent remaining after incubation with CatB, T = 1 h” value was determined as 0%; the “% Parent remaining after incubation with CatB, T = 4 h” value was determined as 0%; the “% Parent remaining after incubation with CatB, T = 24 h” value stood at 0%. Also, in data set [4] (mouse, pH 7.4), the “fold increase in half-life vs Cit-Val” value is reported as 6.3 fold and the half-life at 2 μM was 2.5 h.

As for `CCn1cc(C(=O)O)c(=O)c2cc(F)c(N3CCN(C(=O)OCc4ccc(NC(=O)[C@H](CCN)NC(=O)[C@@H](NC(=O)CCCC(=O)N(C)C)C(C)C)cc4)CC3)cc21` [BCY9474], in data set [3], the “% Parent remaining after incubation with CatB, T = 1 h” value was 0.3%; the “% Parent remaining after incubation with CatB, T = 4 h” value worked out at 0%; the “% Parent remaining after incubation with CatB, T = 24 h” value is given as 0%. For the same compound, in data set [4] (mouse, pH 7.4), the “fold increase in half-life vs Cit-Val” value is on record as 10.8 fold and the half-life at 2 μM was 4.3 h.

As to `CC[C@H](C)[C@@H]([C@@H](CC(=O)N1CCC[C@H]1[C@H](OC)[C@@H](C)C(=O)N[C@H](C)[C@@H](O)c1ccccc1)OC)N(C)C(=O)[C@@H](NC(=O)[C@H](C(C)C)N(C)C(=O)OCc1ccc(NC(=O)[C@H](CCN)NC(=O)C2(NC(=O)[C@H](CCC(=O)O)NC(=O)Cn3cc(CCC(=O)NCCC(=O)N(C)CC(=O)N(C)CC(=O)N(C)CC(=O)N(C)CC(=O)N(C)CC(=O)N(C)CC(=O)N(C)CC(=O)N(C)CC(=O)N(C)CC(=O)N(C)CC(=O)N[C@@H](C)C(=O)N[C@H]4CN(C)Cc5cc6cc(c5)CN(C)C[C@@H](C(N)=O)NC(=O)[C@H](C(C)(C)C)NC(=O)[C@H](CC(=O)O)NC(=O)[C@H](Cc5ccc(O)cc5)NC(=O)[C@H](Cc5ccccc5)NC(=O)[C@H](CC(=O)O)NC(=O)[C@H](CCC(=O)O)NC(=O)[C@H](CSC6)NC(=O)[C@@H](C)NC(=O)[C@H](Cc5cccc6ccccc56)NC(=O)[C@H](CCC(=O)O)NC(=O)[C@H](CC(N)=O)NC(=O)[C@@H](C)NC4=O)nn3)CCC2)cc1)C(C)C` [BCY10988, MMAE-PAB-(Dab-cBu-Glu)-BCY3900], in data set [3], the “% Parent remaining … 0 h” value is on record as 100%; the “% Parent remaining … with CatB, 1 h” value was found to be 109.88%; the “% Parent remaining … 2 h” value turned out to be 119%; the “% Parent remaining … with CatB, 4 h” value was 110%. Also, in data set [3], the “% Parent remaining … 6 h” value worked out at 105%; the “% Parent remaining after incubation with CatB, 24 h” value was determined as 111%; the half-life at 40 μM is over 57.8 h. This compound displayed a half-life at 2 μM in data set [4] (setting [9]) of over 57.8 h.
